Measurements: ChEMBL document CHEMBL3046276, “Preparation and activity study of new organophosphate insecticide candidates” (J Pestic Sci, 2011)
Values after ≈ are worked out from the molar mass of the structure shown.

What was measured:
[1] = Toxicity in Rattus norvegicus Sprague-Dawley (rat) assessed as mortality measured after 24 hr administered orally through force feeding method; assay type: organism-based; settings: in vivo, po
[2] = system: Apolygus lucorum; assay: Insecticidal activity against Apolygus lucorum after 24 hr by larvae-dipping method; assay type: functional
[3] = system: Ostrinia furnacalis; assay: Insecticidal activity against Ostrinia furnacalis (Asian corn borer) after 24 hr by larvae-dipping method; assay type: functional
[4] = system: Pieris rapae; assay: Insecticidal activity against Pieris rapae after 24 hr by larvae-dipping method; assay type: functional
[5] = system: Chilo suppressalis; assay: Insecticidal activity against Chilo suppressalis (rice stem borer) fed on compound pre-treated rice leaves assessed as insect mortality measured after 3 days by leaf-dipping method; assay type: functional
[6] = system: Cnaphalocrocis medinalis; assay: Insecticidal activity against Cnaphalocrocis medinalis fed on compound pre-treated corn leaves assessed as insect mortality measured after 3 days by leaf-dipping method; assay type: functional
[7] = system: Helicoverpa zea; assay: Insecticidal activity against Helicoverpa zea (corn earworm) fed on compound pre-treated cabbage leaves assessed as insect mortality measured after 24 hr by leaf-dipping method; assay type: functional
[8] = system: Helicoverpa zea; assay: Insecticidal activity against Helicoverpa zea (corn earworm) fed on compound pre-treated cabbage leaves assessed as insect mortality measured after 48 hr by leaf-dipping method; assay type: functional

CCOP(=S)(OC)O/N=C(\C#N)c1ccccc1 (racemic)
LD50 at 24 h [1]: 1260 mg/kg
LC50 [2]: 0.00568 µg/mL (≈ 0.02 µM)
LC50 [3]: 0.0698 µg/mL (≈ 0.246 µM)
LC50 [4]: 0.00734 µg/mL (≈ 0.0258 µM)

CCOP(=S)(OC)Oc1nc(Cl)c(Cl)cc1Cl (racemic)
LC50 [5]: 0.27 µg/mL (≈ 0.802 µM)
LC50 [6]: 1.06 µg/mL (≈ 3.15 µM)
LD50 at 24 h [1]: 147 mg/kg
LC50 [7]: 94.4 µg/mL (≈ 280 µM)
LC50 [8]: 46.3 µg/mL (≈ 138 µM)

CCOP(=S)(OCC)Oc1nc(Cl)c(Cl)cc1Cl [CHLORPYRIFOS]
LC50 [5]: 2.61 µg/mL (≈ 7.44 µM)
LC50 [6]: 13.9 µg/mL (≈ 39.6 µM)
LD50 at 24 h [1]: 163 mg/kg
LC50 [7]: 390 µg/mL (≈ 1110 µM)
LC50 [8]: 63.9 µg/mL (≈ 182 µM)

CCOP(=S)(OCC)O/N=C(\C#N)c1ccccc1 [PHOXIM]
LD50 at 24 h [1]: 1200 mg/kg
LC50 [2]: 0.00789 µg/mL (≈ 0.0264 µM)
LC50 [3]: 0.0853 µg/mL (≈ 0.286 µM)
LC50 [4]: 0.0088 µg/mL (≈ 0.0295 µM)
